For orientation: Kd means the concentration at which binding is half-saturated. As usually defined, the IC50 is the concentration at which inhibition is half-maximal. A higher IC50 goes with lower potency.

The record followed here is patent US9340532B2, “Methods and compositions for inhibiting CNKSR1” (PHUSIS THERAPEUTICS, INC., priority 2012, dated 2016).

One test deals with T1, CNK1 PH-domain (CNKSR1) (Homo sapiens, UniProt Q969H4).
T1 construct: The PH-domain His-fusion proteins (CNK1 and AKT1) were expressed and immobilized on a NTA chip; made in house
T1 sequence (Q969H4 403-502 limits assumed): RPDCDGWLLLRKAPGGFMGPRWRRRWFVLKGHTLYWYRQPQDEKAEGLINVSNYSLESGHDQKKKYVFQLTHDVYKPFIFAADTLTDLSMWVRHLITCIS
In words: SPR binding assay (Biacore T100), CNK1 PH-domain. Put shortly: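 His-tagged CNK1 PH-domain was captured on an NTA chip to ≤10,000 RU. Small-molecule analytes were injected at 50 μM to 0.010 μM at 30 μL/min, with 1-5% (v/v) DMSO in samples and running buffer. Binding was measured by surface plasmon resonance.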

For the next test, the target named is T2, AKT1 PH-domain (Homo sapiens, UniProt P31749).
T2 construct: The PH-domain His-fusion proteins (CNK1 and AKT1) were expressed and immobilized on a NTA chip; made in house
In words: SPR binding assay (Biacore T100), AKT1 PH-domain. Particulars: Table 8; read-out: AKT KD. The method in brief:
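His-tagged AKT1 PH domain immobilized on NTA chip to ≤10,000 RU, Biacore T100. Small-molecule analytes injected at 50 μM to 0.010 μM, 30 μL/min, with 1-5% (v/v) DMSO in samples and running buffer.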

Another test has as its target PLE. In words: SPR binding, PLE. Particulars: Table 8. As for the experimental part:
A commercially available docking package, GOLD (GOLD [3.2], CCDC: Cambridge, UK, 2007) was used to evaluate the docking of compounds 1-7 into the binding pocket, see e.g. Table 5. Other docking was performed using modeling algorithms with state-of-the-art commercial drug discovery software (Schrodinger suite). GLIDE was chosen as the docking algorithm used to select and optimize compounds, providing a GlideScore as a rough estimate of binding affinity that was used to rank and select the best compounds. Additionally, ligand-based approaches provided an alternative to structure based drug discovery. Ligand-based virtual screening methodologies can take into account shape and electrostatics (like ROCS) and the pharmacophoric features (acceptor, donor, hydrophobic, aromatic, etc.) of its functional groups. Inositol tetraphosphate (IP4) binding to the PH-domain of CNKSR1 provided a good starting point for shape screening. Both structure-based and ligand-based approaches were used to find novel compounds (Table 7) and to refine and improve lead compounds (Tables 8, and 9). SPR interaction analyses for Compounds 1 through 7 were performed with a Biacore 2000, using Biacore2000 Control Software v3.2 and BIAevaluation v4.1 analysis software (Biacore) as described in Mol Cancer Ther 7:2621 (2008). […]
(In SPR one partner is held on a chip, and binding of the other changes the refractive index at the surface.)

In test [1] the test system is A549 (KRAS mutant cell line). Briefly: Proliferation Assay A549. In kind it is cell-based. As to conditions: Homo sapiens, N = 2 experiments. Put shortly:
(§1)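 Cells plated 2000 per well, allowed 24 h to attach, then exposed 72 h to agents (0-100 μM for isogenic lines; 0.01 to 50 μM for the RPMI 1640/10% FBS-cultured 30-line NSCLC panel). MTS read at 490 nm after 2 h, normalized to no-cell and no-drug controls; IC50 from curve fitting.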

Test [2] deals with H1373 (KRAS mutant cell line). Briefly: Proliferation Assay H1373. Particulars: Homo sapiens, NCI-H1373, N = 2 experiments. The format is cell-based. Put shortly:
as §1

The test system of test [3] is H1975 (KRAS wildtype cell line). Briefly: Proliferation Assay H1975. In kind it is cell-based. As to conditions: Homo sapiens, NCI-H1975, n = 1. Put shortly:
as §1

Test [4] has as its system H226 (KRAS wildtype cell line). Briefly: Proliferation Assay H226. The format is cell-based. Particulars: Homo sapiens, NCI-H226, n = 1. Put shortly: as §1

T2 sequence (P31749 5-108 limits assumed): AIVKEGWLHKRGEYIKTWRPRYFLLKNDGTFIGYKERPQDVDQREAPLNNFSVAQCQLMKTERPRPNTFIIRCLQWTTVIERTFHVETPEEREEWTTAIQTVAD

Turning to `CCOC(=O)/C=C/c1c(O)c(OC)cc(NS(=O)(=O)c2cccs2)c1SC` [Compound 103, ethyl (2E)-3-[2-hydroxy-3-methoxy-6-(methylsulfanyl)-5-(thiopliene-2-sulfonamido)phenyl]prop-2-enoate], the Kd at CNK1 PH-domain (CNKSR1) (Table 8, read-out: CNK KD) was 0.157 µM; on AKT1 PH-domain it was 330 µM; on PLE, 300 µM. Further, the “Surface Plasmon Resonance CNKSR1 binding (RU max)” value at CNK1 PH-domain (CNKSR1) (date 12 09 13) was 2.635 RU * 100/Da. In addition, the “Surface Plasmon Resonance CNKSR1 stability (RU max post-injection)” value on CNK1 PH-domain (CNKSR1) (date 12 09 13) is on record as 3.148 RU * 100/Da. Also, the IC50 in test [1] was 75 µM; in test [2], greater than 100 µM; in test [3], greater than 100 µM; in test [4], greater than 100 µM.
